In brackets after ≈: the same amount, converted by molar mass. Each block holds one compound with its values, some of them ahead of it.
Assays:
K562/ADR = assay: Leukemia cell growth inhibition, MTT, 72 h; format: cell-based; settings: Homo sapiens
Summary of the method: (§1)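 Each leukemia line (K562/ADR, H9, Jurkat, Kasumi-1) was seeded at 6000 cells/well and dosed the next day with oridonin derivatives at several concentrations. Plates were incubated 72 h at 37° C in 5% CO2, then viable cells quantified by MTT.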

Kasumi-1 = assay: Leukemia cell growth inhibition, MTT, 72 h; format: cell-based; settings: Homo sapiens
Summary of the method: as §1

H9 = assay: Leukemia cell growth inhibition, MTT, 72 h; format: cell-based, human; settings: Homo sapiens, H9; 72 h, MTT
Summary of the method: as §1

Jurkat = assay: Leukemia cell growth inhibition, MTT, 72 h; format: cell-based, human; settings: Homo sapiens, Jurkat; 72 h, MTT
Summary of the method: as §1

NB4 = assay: Leukemia cell growth inhibition, MTT, 72 h; format: cell-based, human; settings: Homo sapiens, NB-4; 72 h, MTT
Summary of the method: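 MTT read-out of viable cell concentration after 72 hours of exposure at 37° C under 5% CO2. Compounds were dosed at several concentrations one day after plating 6000 cells per well.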

RPMI 8226 = assay: Multiple myeloma cell growth inhibition, MTT, 72 h; format: cell-based; settings: Homo sapiens
Summary of the method: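 Growth inhibition by MTT after 72 h drug exposure (37 °C, 5% CO2) over a concentration range of oridonin derivatives. RPMI 8226 cells plated at 6000 per well and dosed the following day.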

CNE = assay: Solid tumor cell growth inhibition, MTT, 72 h; format: cell-based, human; settings: for IC50 / IC90: Homo sapiens, CNE, 72 h, MTT
Summary of the method: (§2)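 Human tumor cells at 6000 per well grew 24 hours in DMEM high glucose with 10% fetal bovine serum at 37° C, 5% CO2. Oridonin derivatives at varied concentrations were added for 72 hours, then viable cells were measured by MTT.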

Hela = assay: Solid tumor cell growth inhibition, MTT, 72 h; format: cell-based, human; settings: Homo sapiens, HeLa; 72 h, MTT
Summary of the method: as §2

Hep-2 = assay: Solid tumor cell growth inhibition, MTT, 72 h; format: cell-based, human; settings: Homo sapiens, HEp-2; 72 h, MTT
Summary of the method: as §2

MGC-803 = assay: Solid tumor cell growth inhibition, MTT, 72 h; format: cell-based, human; settings: Homo sapiens, MGC-803; 72 h, MTT
Summary of the method: as §2

A549 = assay: Solid tumor cell growth inhibition, MTT, 72 h; format: cell-based; settings: Homo sapiens
Summary of the method: as §2

Becap-37 = assay: Solid tumor cell growth inhibition, MTT, 72 h; format: cell-based; settings: Homo sapiens
Summary of the method: as §2

CaEs-17 = assay: Solid tumor cell growth inhibition, MTT, 72 h; format: cell-based; settings: Homo sapiens, CaEs17
Summary of the method: as §2

Hep G2 = assay: Solid tumor cell growth inhibition, MTT, 72 h; format: cell-based; settings: Homo sapiens, HepG2
Summary of the method: as §2

MG-63 = assay: Solid tumor cell growth inhibition, MTT, 72 h; format: cell-based; settings: Homo sapiens
Summary of the method: as §2

PANC-1 = assay: Solid tumor cell growth inhibition, MTT, 72 h; format: cell-based; settings: Homo sapiens
Summary of the method: as §2

PC-3 = assay: Solid tumor cell growth inhibition, MTT, 72 h; format: cell-based; settings: Homo sapiens
Summary of the method: as §2

RKO = assay: Solid tumor cell growth inhibition, MTT, 72 h; format: cell-based; settings: Homo sapiens
Summary of the method: as §2

SK-OV-3 = assay: Solid tumor cell growth inhibition, MTT, 72 h; format: cell-based; settings: Homo sapiens, SK-OV-3, 72 h, MTT; for IC50: read-out: IC50 SK-OV-3; for IC90: read-out: IC90 SK-OV-3
Summary of the method: as §2

U87-MG = assay: Solid tumor cell growth inhibition, MTT, 72 h; format: cell-based; settings: Homo sapiens, U-87 MG
Summary of the method: as §2

IC50 (K562/ADR): 0.41 µg/mL (≈ 0.853 µM)
IC90 (K562/ADR): 1.72 µg/mL (≈ 3.58 µM)
IC50 (Kasumi-1): 0.41 µg/mL (≈ 0.853 µM)
IC90 (Kasumi-1): 1.68 µg/mL (≈ 3.5 µM)
IC50 (H9): 0.34 µg/mL (≈ 0.708 µM)
IC90 (H9): 0.83 µg/mL (≈ 1.73 µM)
IC50 (Jurkat): 0.62 µg/mL (≈ 1.29 µM)
IC90 (Jurkat): 2.7 µg/mL (≈ 5.62 µM)
IC50 (NB4): 0.13 µg/mL (≈ 0.271 µM)
IC90 (NB4): 0.76 µg/mL (≈ 1.58 µM)
IC50 (RPMI 8226): 0.31 µg/mL (≈ 0.645 µM)
IC90 (RPMI 8226): 1.77 µg/mL (≈ 3.68 µM)
IC50 (CNE): 0.95 µg/mL (≈ 1.98 µM)
IC90 (CNE): 4.67 µg/mL (≈ 9.72 µM)
IC50 (Hela): 1.28 µg/mL (≈ 2.66 µM)
IC90 (Hela): 3.87 µg/mL (≈ 8.05 µM)
IC50 (Hep-2): 1.38 µg/mL (≈ 2.87 µM)
IC90 (Hep-2): 6.79 µg/mL (≈ 14.1 µM)
IC50 (MGC-803): 0.65 µg/mL (≈ 1.35 µM)
IC90 (MGC-803): 4.88 µg/mL (≈ 10.2 µM)
IC50 (A549): 1.71 µg/mL (≈ 3.56 µM)
IC90 (A549): 4.9 µg/mL (≈ 10.2 µM)
IC50 (Becap-37): 0.66 µg/mL (≈ 1.37 µM)
IC90 (Becap-37): 3.3 µg/mL (≈ 6.87 µM)
IC50 (CaEs-17): 0.88 µg/mL (≈ 1.83 µM)
IC90 (CaEs-17): 4.58 µg/mL (≈ 9.53 µM)
IC50 (Hep G2): 0.85 µg/mL (≈ 1.77 µM)
IC90 (Hep G2): 7.84 µg/mL (≈ 16.3 µM)
IC50 (MG-63): 0.33 µg/mL (≈ 0.687 µM)
IC90 (MG-63): 0.87 µg/mL (≈ 1.81 µM)
IC50 (PANC-1): 1.31 µg/mL (≈ 2.73 µM)
IC90 (PANC-1): 8.24 µg/mL (≈ 17.1 µM)
IC50 (PC-3): 1.45 µg/mL (≈ 3.02 µM)
IC90 (PC-3): 3.94 µg/mL (≈ 8.2 µM)
IC50 (RKO): 0.31 µg/mL (≈ 0.645 µM)
IC90 (RKO): 0.87 µg/mL (≈ 1.81 µM)
IC50 (SK-OV-3): 1.45 µg/mL (≈ 3.02 µM)
IC90 (SK-OV-3): 3.94 µg/mL (≈ 8.2 µM)
IC50 (U87-MG): 0.8 µg/mL (≈ 1.66 µM)
IC90 (U87-MG): 3.24 µg/mL (≈ 6.74 µM)
Structure (SMILES): C=C1C(=O)[C@]23[C@H](OC(=O)c4ccc(C)cc4)[C@H]1CC[C@H]2[C@@]12CO[C@@]3(O)[C@@H](O)[C@@H]1C(C)(C)CCC2=O [BS-OR-004]
anti-CNE activity increased (CNE; in comparison with oridonin): ~6 fold

IC50 (K562/ADR): 1.32 µg/mL (≈ 2 µM)
IC90 (K562/ADR): 3.6 µg/mL (≈ 5.47 µM)
IC50 (Kasumi-1): 1.41 µg/mL (≈ 2.14 µM)
IC90 (Kasumi-1): 3.19 µg/mL (≈ 4.84 µM)
IC50 (H9): 1.64 µg/mL (≈ 2.49 µM)
IC90 (H9): 3.46 µg/mL (≈ 5.25 µM)
IC50 (Jurkat): 1.16 µg/mL (≈ 1.76 µM)
IC90 (Jurkat): 4.4 µg/mL (≈ 6.68 µM)
IC50 (NB4): 0.35 µg/mL (≈ 0.531 µM)
IC90 (NB4): 1.66 µg/mL (≈ 2.52 µM)
IC50 (RPMI 8226): 1.7 µg/mL (≈ 2.58 µM)
IC90 (RPMI 8226): 3.73 µg/mL (≈ 5.66 µM)
IC50 (CNE): 2.95 µg/mL (≈ 4.48 µM)
IC90 (CNE): 8.76 µg/mL (≈ 13.3 µM)
IC50 (Hela): 3.41 µg/mL (≈ 5.18 µM)
IC90 (Hela): 10.1 µg/mL (≈ 15.3 µM)
IC50 (Hep-2): 3.58 µg/mL (≈ 5.43 µM)
IC90 (Hep-2): 15.3 µg/mL (≈ 23.2 µM)
IC50 (MGC-803): 3.18 µg/mL (≈ 4.83 µM)
IC90 (MGC-803): 6.35 µg/mL (≈ 9.64 µM)
IC50 (A549): 5.72 µg/mL (≈ 8.68 µM)
IC90 (A549): 10.1 µg/mL (≈ 15.4 µM)
IC50 (Becap-37): 2.75 µg/mL (≈ 4.17 µM)
IC90 (Becap-37): 7.47 µg/mL (≈ 11.3 µM)
IC50 (CaEs-17): 3.07 µg/mL (≈ 4.66 µM)
IC90 (CaEs-17): 11.2 µg/mL (≈ 16.9 µM)
IC50 (Hep G2): 3.33 µg/mL (≈ 5.06 µM)
IC90 (Hep G2): > 16 µg/mL
IC50 (MG-63): 1.2 µg/mL (≈ 1.82 µM)
IC90 (MG-63): 3.1 µg/mL (≈ 4.71 µM)
IC50 (PANC-1): 4.98 µg/mL (≈ 7.56 µM)
IC90 (PANC-1): 11.1 µg/mL (≈ 16.8 µM)
IC50 (PC-3): 3.48 µg/mL (≈ 5.28 µM)
IC90 (PC-3): 7.08 µg/mL (≈ 10.7 µM)
IC50 (RKO): 0.91 µg/mL (≈ 1.38 µM)
IC90 (RKO): 1.84 µg/mL (≈ 2.79 µM)
IC50 (SK-OV-3): 3.48 µg/mL (≈ 5.28 µM)
IC90 (SK-OV-3): 7.08 µg/mL (≈ 10.7 µM)
IC50 (U87-MG): 1.86 µg/mL (≈ 2.82 µM)
IC90 (U87-MG): 4.68 µg/mL (≈ 7.1 µM)
Structure (SMILES): C=C1C(=O)[C@]23[C@H](OC(=O)C4CCN(S(=O)(=O)c5cccc([N+](=O)[O-])c5)CC4)[C@H]1CC[C@H]2[C@@]12CO[C@@]3(O)[C@@H](O)[C@@H]1C(C)(C)CCC2=O [BS-OR-037]
